From publication PMC9653339, “Revisiting the anticancer properties of phosphane(9-ribosylpurine-6-thiolato)gold(I) complexes and their 9H-purine precursors” (Journal of Biological Inorganic Chemistry, 2022)
Read-outs that look alike come from different tables or passages of the source.

Assays:
[1] = system: mdr MCF-7^Topo mamma carcinoma cells; experiment: MTT cell viability assay, MCF-7Topo; type: cell-based, human; conditions: 72 h
Description: (§1) All complexes stable in solution were investigated for their anti-proliferative effect on nine human cancer cell lines, using the MTT-based cell viability assay. Cells were seeded in 96-well microtiter plates (Sarstedt) with a cell density of 0.05 × 10^6 cells per ml and 100 µL per well and incubated for 24 h. A dilution series of test compounds was added to the wells, ranging in twelve steps from 100 µM to 5 nM. As a control, equal amounts of DMSO were added. Treated cells were further incubated for 72 h. Then, 12.5 µL per well of MTT solution (0.05% in phosphate-buffered saline (PBS)) was added, followed by another 2 h of incubation. The plates were centrifuged, the medium was discarded and 25 µL per well of SDS solution in DMSO (10% SDS, 0.6% AcOH in DMSO) was added to dissolve the formazan. The plates were incubated for a further hour. Absorbances at 570 nm and 630 nm were measured using a plate reader (Tecan). Background absorbance (630 nm) was subtracted from the formazan signal (570 nm). The resulting absorbance was directly proportional to the amount of viable cells. The control was normalized to 100% viable cells and viability of cells treated with test compounds was calculated accordingly. IC50 values were calculated based on a sigmoidal fit model using GraphPad Prism. Means and SD were calculated from at least four independent experiments.

tubulin = experiment: Tubulin polymerisation assay; type: biochemical; conditions: in vitro, turbidity at 340 nm
Description: First, 2 × polymerization buffer was prepared, which consisted of 385 µL Brinkley renaturing buffer 80 (BRB 80), 100 µL glycerol, and 15 µL GTP (100 mM). 50 µL of freshly prepared 2 × polymerization buffer was added to µClear black well plates. Subsequently, 11.1 µL each of a tenfold substance pre-dilution in BRB80 was added. In addition, a combretastatin A-4 positive control was prepared analogously. After rapid addition of 50 µL of tubulin per well, the measurement was started on the plate reader at 340 nm. The plate reader measured at 20 s intervals for at least 120 min until the measurement plateau was reached. For evaluation, OD 340 nm was plotted versus time.

[2] = system: thioredoxin reductase (TrxR); experiment: Inhibition of TrxR activity in cell lysates; type: biochemical, human; conditions: lysates of 518A2 melanoma cells
Description: For the measurement of TrxR activity, the TrxR Colorimetric Assay Kit (Cayman Chemicals) was used according to manufacturer’s instructions. 1 × 10^8 518A2 melanoma cells were harvested using a cell scraper, homogenized in 5 mL of cold lysis buffer (50 mM K3PO4, 1 mM EDTA, pH 7.4) on ice and centrifuged for 15 min (4 °C, 10,000×g). The protein concentration of the supernatant was determined via Nanodrop. Then, 10 µL Protease Inhibitor Cocktail Plus (Carl Roth) was added to 1 mL of the cell lysate, which was either used for the assay right away or stored at − 80 °C. Prior to use, the assay buffer was warmed to room temperature and the cell lysate, NADPH (Nicotinamide adenine dinucleotide phosphate), ATM (aurothiomalate) and rat liver TrxR enzyme were thawed and kept on ice After determination of the amount of cell lysate for optimum TrxR activity, alle components were pipetted into the wells of a clear 96-well plate and the enzymatic reactions were initiated by addition of NADPH and 5,5′-dithiobis-(2-nitrobenzoic acid (DTNB). Then, the absorbance at 405 nm was measured once every minute using a plate reader (Tecan) at least ten time points. The TrxR activity was measured in the presence and absence of ATM. The difference between the two results renders the DTNB reduction due to TrxR activity. By plotting the average absorbance values as a function of time, the slope of the linear portion of the curve was obtained, and the change of absorbance (ΔA405) per minute could be determined. The values were corrected for unspecific DTNB reduction and the TrxR activity was calculated using the following formula: TrxR activity [µmol/min/mL] = [corrected ΔA/min (sample)/7.92 mM^−1] × [0.2 mL/0.02 mL] × sample dilution. The assay was conducted at 22 °C. All experiments were performed in triplicate and the solvent-treated negative controls were set to 100%.

518A2 melanoma cells [3] = experiment: Influence on the cell cycle (PI flow cytometry); type: cell-based, human; conditions: 518A2 cells, 24 h, IC50 concentrations (5: approximately twice its IC50)
Description: The complexes were investigated for their effect on the cell cycle. Cells were seeded in 6-well plates (Sarstedt) with 3 mL per well and a cell density of 0.05 × 10^6 cells per mL and incubated for 24 h. […] The supernatant of each sample was transferred into a separate tube on ice, the cell monolayer was rinsed once with PBS and the cells were harvested using trypsin, and also transferred into the tube. The cells were pelleted (4 °C, 150 × g, 5 min), re-suspended in 1 mL ice cold EtOH (70%) and stored for at least 1 h at 4 °C. Prior to propidium iodide (PI) staining, the cells were centrifuged (150×g, 5 min), the supernatant was discarded and the cells were layered with 1 mL PBS for 5 min. The cells were centrifuged again and the pellet was re-suspended in 200 µL of PI staining solution (50 µg/mL PI, 1% sodium citrate in PBS) containing 1 µL RNase (10 mg/mL stock solution) and incubated in dark for 30 min at 37 °C. The cell cycle distribution was assessed by flow cytometry (Beckmann Coulter). Means and SD were calculated from at least three independent experiments.

[4] = system: HeLa cervix carcinoma cells; experiment: MTT cell viability assay, HeLa; type: cell-based, human; conditions: 72 h
Description: as §1

518A2 melanoma cells [5] = system: 518A2 melanoma cells; set-up: method as in Bär et al. [33]; conditions: MTT, value marked * ref Bär et al. [33]; cited from earlier work
518A2 melanoma cells [6] = experiment: Inhibition of wound healing (scratch migration assay); type: cell-based, human; conditions: 518A2 cells, IC50 concentrations, 0-24 h
Description: Cells of melanoma cell line 518A2 were seeded in a volume of 500 µL and at a concentration of 0.1 × 10^6 cells/mL in 24-well plates in triplicate. The plate was incubated (37 °C, 95% humidity, 5% CO2) for two days until a confluent monolayer was formed. A 10 µL pipette tip was used to create a wound in the cell lawn, the wound was rinsed with PBS and the medium was changed to a FBS-reduced one. Pictures were taken at first time point (0 h) right before the addition of substance at 100-fold pre-dilution. The plate was then incubated again in the incubator and photos were taken at several more time points (6, 12, and 24 h) [262626].

For `Sc1ncnc2nc[nH]c12` [6-MP, 6-Mercaptopurine, reference compound], the IC50 ([1]; Homo sapiens, MCF7/Topo) was 6.4 ± 0.46 µM, the “Inhibition of tubulin polymerization” value (tubulin) was “inhibited tubulin polymerization” and the “Inhibition of TrxR activity” value [2] was “inhibited TrxR”. For the same molecule, the “Effect on the cell cycle” value (518A2 melanoma cells [3]) was “accumulated in G1-phase” and the IC50 ([4]; Homo sapiens, HeLa) was 1.4 ± 0.1 µM.
With `Nc1nc2nc[nH]c2c(=S)[nH]1` [6-TG, 6-thioguanine, reference compound] the IC50 ([1]; Homo sapiens, MCF7/Topo) was 0.9 ± 0.09 µM, the “Inhibition of tubulin polymerization” value (tubulin) was “inhibited tubulin polymerization” and the “Inhibition of TrxR activity” value [2] was “inhibited TrxR”. The “Effect on the cell cycle” value (518A2 melanoma cells [3]) was “accumulated in G1-phase” and the IC50 ([4]; Homo sapiens, HeLa) was 0.19 ± 0.01 µM.
In the case of `CC(=O)OC[C@H]1O[C@@H]([S-])[C@H](OC(C)=O)[C@@H](OC(C)=O)[C@@H]1OC(C)=O.CCP(CC)CC.[Au+]` [Auranofin, auranofin], the IC50 (518A2 melanoma cells [5]) is given as 1.8 ± 0.03 µM, the IC50 ([1]; read-out: IC50 MCF7^Topo) is given as 4.7 ± 0.43 µM and the “Inhibition of tubulin polymerization” value (tubulin) is given as “microtubule-destabilizing agent”. For the same molecule, the “Inhibition of TrxR activity” value [2] was “inhibited TrxR” and the “Effect on the cell cycle” value (518A2 melanoma cells [3]) was “arrested mainly in S-phase”.
In the case of `OC[C@H]1O[C@@H](n2cnc3c([S][Au][PH](c4ccccc4)(c4ccccc4)c4ccccc4)ncnc32)[C@H](O)[C@@H]1O` [Complex 5, (1,7-Dihydro-6H-purine-9-β-D-ribofuranosyl-6-thiolato) (triphenylphosphane) gold(I)], the IC50 ([1]; read-out: IC50 MCF7^Topo) is reported as 1.7 ± 0.14 µM, the “Effect on cell migration (scratch closure)” value (518A2 melanoma cells [6]) is reported as “retarded the closure of the scratch” and the “Inhibition of tubulin polymerization” value (tubulin) is reported as “merely slight inhibition of tubulin polymerization”. For the same molecule, the “Inhibition of TrxR activity” value [2] was “inhibited TrxR even more strongly than 6-MP, 6-TG and auranofin”, the “Effect on the cell cycle” value (518A2 melanoma cells [3]) was “both a G1-phase arrest and an S-phase arrest” and the IC50 [4] was 0.19 ± 0.01 µM.
For `Nc1nc([S][Au][PH](c2ccccc2)(c2ccccc2)c2ccccc2)c2ncn([C@@H]3O[C@H](CO)[C@@H](O)[C@H]3O)c2n1` [Complex 6, (2-Amino-1,7-dihydro-6H-purine-9-β-D-ribofuranosyl-6-thiolato) (triphenylphosphane) gold(I)], the IC50 ([1]; read-out: IC50 MCF7^Topo) was 3.2 ± 0.29 µM, the “Effect on cell migration (scratch closure)” value (518A2 melanoma cells [6]) was “even accelerated it” and the “Inhibition of tubulin polymerization” value (tubulin) was “merely slight inhibition of tubulin polymerization”. For the same molecule, the “Inhibition of TrxR activity” value [2] was “inhibited TrxR even more strongly than 6-MP, 6-TG and auranofin” and the IC50 [4] was 2.4 ± 0.14 µM.
